The values that follow are results of earlier work, collected in US20080089936A1, “PROLONGED RELEASE FORMULATION OF ACTIVE PRINCIPLES HAVING A PH-DEPENDENT SOLUBILITY” (SANOFI-AVENTIS, priority 2005, published 2008).

SMILES strings stand for the structures.

For the data set the following is noted: hypnotic agent, oral.

Turning to `Cc1ccc(-c2nc3ccc(C)cn3c2CC(=O)N(C)C)cc1` [zolpidem], the duration of action result is reported as “up to 6 hours”.
